Measurements: ChEMBL document CHEMBL4390636, “Synthesis, spectroscopic characterization, molecular docking and theoretical studies (DFT) of N-(4-aminophenylsulfonyl)-2-(4-isobutylphenyl) propanamide having potential enzyme inhibition applications” (Bioorg Med Chem, 2019)

Experiments:
Rattus norvegicus [1] = experiment: Anti-inflammatory activity in Wistar rat assessed as inhibition of kaolin paw edema at 50 mg/kg, po dosed 1 hr before kaolin injection and measured 4 hrs after kaolin injection relative to untreated control; format: functional
Rattus norvegicus [2] = experiment: Anti-ulcer activity in Wistar rat model of ethanol-induced gastric ulcer model assessed as ulcer area at 50 mg/kg, po dosed 1 hr before ethanol injection relative to untreated control; format: functional
Acetylcholinesterase [3] = target: T1, Acetylcholinesterase (Homo sapiens, UniProt P22303); experiment: Inhibition of AChE (unknown origin) at 0.5 mM using […] as substrate by Ellman method relative to untreated control
Acetylcholinesterase [4] = target: T1, Acetylcholinesterase; experiment: Inhibition of AChE (unknown origin) using […] as substrate by Ellman method
Cholinesterase [5] = target: T2, Cholinesterase (Homo sapiens, UniProt P06276); experiment: Inhibition of BuChE (unknown origin) at 0.5 mM using butyrylthiocholine bromide as substrate by Ellman method relative to untreated control
Cholinesterase [6] = target: T2, Cholinesterase; experiment: Inhibition of BuChE (unknown origin) using butyrylthiocholine bromide as substrate by Ellman method
[7] = Antioxidant activity assessed as DPPH free radical scavenging activity at 0.5 mM relative to untreated control; format: functional
[8] = Antioxidant activity assessed as DPPH free radical scavenging activity at 0.25 mM relative to untreated control; format: functional
[9] = target: T3, Polyunsaturated fatty acid 5-lipoxygenase (Homo sapiens) (UniProt P09917); experiment: Inhibition of 5-LOX (unknown origin) relative to untreated control; details: concentration not given here
T3 sequence (whole entry): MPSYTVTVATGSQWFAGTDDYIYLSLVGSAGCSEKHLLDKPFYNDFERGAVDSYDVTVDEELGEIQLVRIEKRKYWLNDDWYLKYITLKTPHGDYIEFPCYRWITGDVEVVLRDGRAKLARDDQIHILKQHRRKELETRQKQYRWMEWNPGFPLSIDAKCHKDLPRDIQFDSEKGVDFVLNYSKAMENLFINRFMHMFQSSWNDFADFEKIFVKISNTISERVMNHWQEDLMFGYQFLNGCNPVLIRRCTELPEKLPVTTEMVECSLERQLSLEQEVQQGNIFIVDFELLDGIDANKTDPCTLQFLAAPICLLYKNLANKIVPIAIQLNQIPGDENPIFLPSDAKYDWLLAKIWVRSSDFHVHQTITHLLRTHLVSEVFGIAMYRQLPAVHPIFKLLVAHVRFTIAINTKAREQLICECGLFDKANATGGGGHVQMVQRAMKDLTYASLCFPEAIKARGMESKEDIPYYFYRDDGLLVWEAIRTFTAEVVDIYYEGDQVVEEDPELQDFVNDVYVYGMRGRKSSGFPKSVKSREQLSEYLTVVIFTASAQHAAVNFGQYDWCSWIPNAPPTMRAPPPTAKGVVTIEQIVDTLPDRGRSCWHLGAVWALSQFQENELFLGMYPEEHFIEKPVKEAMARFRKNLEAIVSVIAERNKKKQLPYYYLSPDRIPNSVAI

[10] = Toxicity in orally dosed Wistar rat monitored every hour for 12 hrs and then every day for 14 days; format: organism-based; details: in vivo, po

T2 sequence (P06276 whole entry): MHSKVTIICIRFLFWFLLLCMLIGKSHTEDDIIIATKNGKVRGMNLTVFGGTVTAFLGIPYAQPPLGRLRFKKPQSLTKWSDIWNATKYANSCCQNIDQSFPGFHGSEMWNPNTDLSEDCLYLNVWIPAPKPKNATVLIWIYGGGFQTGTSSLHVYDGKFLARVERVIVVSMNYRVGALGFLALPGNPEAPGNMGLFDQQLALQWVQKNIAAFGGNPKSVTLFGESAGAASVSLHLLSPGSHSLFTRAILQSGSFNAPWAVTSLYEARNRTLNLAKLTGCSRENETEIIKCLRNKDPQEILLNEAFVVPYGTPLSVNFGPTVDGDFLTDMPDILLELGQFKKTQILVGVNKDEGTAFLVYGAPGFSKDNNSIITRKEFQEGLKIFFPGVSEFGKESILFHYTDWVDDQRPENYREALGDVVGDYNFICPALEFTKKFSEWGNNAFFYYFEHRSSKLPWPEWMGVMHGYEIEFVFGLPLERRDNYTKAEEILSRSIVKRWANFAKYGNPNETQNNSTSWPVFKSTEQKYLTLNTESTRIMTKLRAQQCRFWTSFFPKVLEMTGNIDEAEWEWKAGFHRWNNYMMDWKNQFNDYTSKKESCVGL
T1 sequence (P22303 whole entry): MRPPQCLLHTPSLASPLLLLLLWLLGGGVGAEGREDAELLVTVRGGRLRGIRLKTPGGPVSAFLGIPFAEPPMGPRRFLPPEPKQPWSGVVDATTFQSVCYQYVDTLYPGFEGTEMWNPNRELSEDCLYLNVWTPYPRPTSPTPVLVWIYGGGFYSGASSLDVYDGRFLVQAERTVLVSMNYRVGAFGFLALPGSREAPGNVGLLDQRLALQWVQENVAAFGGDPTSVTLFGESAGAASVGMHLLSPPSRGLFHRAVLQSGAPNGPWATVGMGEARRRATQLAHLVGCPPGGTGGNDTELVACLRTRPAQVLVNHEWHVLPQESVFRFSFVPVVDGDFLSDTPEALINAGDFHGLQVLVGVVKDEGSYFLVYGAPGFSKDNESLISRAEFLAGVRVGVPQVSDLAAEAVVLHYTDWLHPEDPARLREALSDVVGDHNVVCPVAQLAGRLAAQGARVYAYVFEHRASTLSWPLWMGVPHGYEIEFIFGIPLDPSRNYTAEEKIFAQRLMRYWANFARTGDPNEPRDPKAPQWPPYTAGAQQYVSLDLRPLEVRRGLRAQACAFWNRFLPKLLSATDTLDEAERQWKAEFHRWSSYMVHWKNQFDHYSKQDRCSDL

Row | Compound | inhibition in vivo at 50 mg/kg (Rattus norvegicus [1]) | Activity (Rattus norvegicus [2]) | inhibition (Acetylcholinesterase [3]) | IC50 (Acetylcholinesterase [4]) | inhibition (Cholinesterase [5]) | IC50 (Cholinesterase [6]) | inhibition [7] | IC50 [8] | inhibition [9] | LD50 at 14 days [10]
1 | CC(C)Cc1ccc(C(C)C(=O)O)cc1 (stereo not given) [IBUPROFEN] | 45% | 35% | 61.2% | 235.11 µmol | 35.5% | < 600 µmol | 11.3% | < 500 µmol | 42.5% | 630 mg/kg
2 | O=c1c(O)c(-c2ccc(O)c(O)c2)oc2cc(O)cc(O)c12 [QUERCETIN] |  |  |  |  |  |  | 93.2% | 16.96 µmol |  | 
3 | CC(C)Cc1ccc(C(C)C(=O)NS(=O)(=O)c2ccc(N)cc2)cc1 (stereo not given) | 75% | 8% | 47.2% | < 600 µmol | 65.9% | 214.41 µmol |  |  | 48.4% | 4050 mg/kg
4 | Nc1ccc(S(N)(=O)=O)cc1 [SULFANILAMIDE] | 10% | 10% | 10.2% |  | 5.19% | 138.79 µmol |  |  |  | 
